Experimental findings from US20110028504A1, “Formulation of radioprotective alpha beta unsaturated aryl sulfones” (ONCONOVA THERAPEUTICS, INC., priority 2005, published 2011) are described below.

Holding throughout (format): physicochemical
Data set [1] can be described thus: Forced degradation studies (HPLC). Here is the method: In order to establish the specificity of this assay procedure several forced degradation studies were conducted as follows:
The ON.1210.Na sample is prepared in HPLC grade water at a concentration of 200 μg/mL. All the peaks detected in the chromatogram at time zero are noted with their corresponding retention time and absolute peak areas. The solution is crimped into a 5 mL glass vial and autoclaved. After autoclaving, the sample is filtered through a 0.1μ filter and 20 μL of the filtered sample is analyzed. The absolute peak area of the peak after autoclaving and appearance of any additional peaks due to possible degradation is shown in Table 9.
One ml of the 500 μg/mL standard solution is mixed with 1 mL of 0.1 N HCl. The sample is cloudy in appearance and filtered prior to HPLC analysis. All the peaks detected in the chromatogram at time zero are noted with their corresponding retention time and absolute peak areas. The solution is crimped into a 5 mL glass vial and autoclaved. After autoclaving, the sample is filtered through a 0.1μ filter and […] of the filtered sample is analyzed by HPLC. The absolute peak areas of the peak after autoclaving, and appearance of any other peaks due to possible degradation are noted.
One ml of the 500 μg/mL standard solution is mixed with 1 mL of 0.1 N NaOH. The sample is clear in appearance. All the peaks detected in the chromatogram at time zero are noted with their corresponding retention time and absolute peak area. The solution is crimped into a 5 mL glass vial and autoclaved. After autoclaving, the sample is filtered through a 0.1μ filter and 20 μL of the filtered sample is analyzed. The absolute peak area of the peaks after autoclaving and appearance of any other peaks due to possible degradation are noted.
A solid drug sample (ON1210), after autoclaving in a crimped vial, is also evaluated for any degradation using the developed HPLC method. The sample, after autoclaving, is used to make a standard solution of 400 μg/mL and injected onto HPLC.
In this study, 30% of the hydrogen peroxide is diluted to 3% (v/v) with water. One ml of the 500 μg/mL standard solution is mixed with 1 mL of 3% hydrogen peroxide; then incubated at 50° C. over a period of two hours. All the peaks detected in the chromatogram at different time points are noted with their corresponding retention time and absolute peak areas. The chromatograms are run for 30 minute periods.

Data set [2] can be described thus: Octanol-water partition coefficient. The conditions noted are these: 25° C., n-octanol and HPLC water, triplicate; pH of the aqueous phase 8.1. The procedure: The octanol-water partition coefficient of the drug is determined at 25° C. Equal volumes (10 ml) saturated solution of ON.1210.Na in n-octanol and HPLC water are equilibrated at 25° C. in a shaking water bath for 48 hours. The pH of the aqueous phase is also determined. At a predetermined time, a known volume of both the organic and aqueous phase is collected via a filtered needle. Subsequently, the concentration of ON.1210.Na is determined by HPLC after adequate dilution.
The octanol-water partition coefficient of the drug is determined at 25° C. using equal volumes (10 ml) of saturated solution of ON.1210.Na in n-octanol and HPLC water. Similarly, the partition coefficient is determined using simulated gastric and intestinal fluid without enzymes. The octanol-water partition coefficient is determined using the following equation: […]

Data set [3] is described as follows: Solid-state stability at 75° C. The procedure: The stability of ON.1210.Na in the solid state is determined by exposing the drug at 75° C. over a prolonged time. The sample is crimped in a 10 mL injection vial and kept at the above temperature. The sample is collected after 15 days and one month and reconstituted with diluting solution and its concentration is determined by HPLC. Appearance of any additional peak in the chromatogram is also noted. A control sample is represented by ON.1210.Na not exposed to 75° C. and reconstituted to a known concentration with diluting solution.

Data set [4] can be described thus: Saturated solubility in different solvent systems.

The term Solubility denotes the dissolved amount per volume that the medium holds. High values mean a readily soluble substance, low ones a poorly soluble substance. As for `O=C([O-])c1ccc(/C=C/S(=O)(=O)Cc2ccc(Cl)cc2)cc1.[Na+]` [ON.1210.Na, (E)-4-Carboxystyryl-4-chlorobenzylsulfone, Sodium Salt], the “stability of the aqueous solution on autoclaving” value in data set [1] (200 μg/mL in water) is recorded as “stable under autoclaving conditions”. Moreover, the “degradation under alkaline condition” value in data set [1] (0.05N NaOH, autoclaving) was “Significantly more degradation is present under alkaline condition”. Moreover, in data set [1] (in presence of strong acid (0.05N HCl)), the degradation upon autoclaving result is “less than 10%”. In addition, the “stability of the solid on autoclaving” value in data set [1] (solid drug autoclaved in a crimped vial, then 400 μg/mL by HPLC) is on record as “stable under the autoclaving conditions”. Besides, the “octanol:water partition coefficient” value in data set [2] is 1.28-2.87. For the same compound, in data set [3], the “accelerated solid-state stability of the bulk drug substance” value is recorded as “no evidence of degradation”. Further, the Solubility in data set [4] (0.25% Tween 80 in phosphate buffer, pH of solution 8.45) is 9.5 mg/mL; in data set [4] (0.5% Tween 80 in phosphate buffer, pH of solution 8.41) it was 9.8 mg/mL; in data set [4] (1% Tween 80 in phosphate buffer, pH of solution 8.45), 8.9 mg/mL; in data set [4] (2% Tween 80 in phosphate buffer, pH of solution 8.39) it was 9.7 mg/mL; in data set [4] (2% tween 80 in water, pH of solution 8.78), 9 mg/mL; in data set [4] (10% cyclodextran, 24 hours of equilibration, pH of solution 8.14) it was 46 mg/mL. In addition, the Solubility in data set [4] (10% cyclodextran, 48 hours of equilibration, pH of solution 8.41) came out at 41 mg/mL; in data set [4] (50% PEG400:water, pH of solution 7.53), 40 mg/mL; in data set [4] (50:50 PEG400:ethanol, pH of solution 8.46), 37 mg/mL; in data set [4] (PEG300 (IP10 g/kg), pH of solution 8.21), 52.04 mg/mL.
